In ChEMBL document CHEMBL3046700, “Identification of novel inhibitors of HIV-1 integrase using pharmacophore-based virtual screening combined with molecular docking strategies” (Med Chem Res, 2013) one finds IC50 data, which are given here for 10 compounds.

Broadly, the IC50 is the midpoint of a concentration-inhibition curve. Read a low IC50 as greater potency.

In the assay the target is Human immunodeficiency virus type 1 integrase (Human immunodeficiency virus 1, UniProt Q7ZJM1). Kind of assay: Inhibition of Human immunodeficiency virus 1 integrase strand transfer activity using [32P]5'end-labeled linear 21 mer as substrate incubated for 30 min prior to substrate addition measured after 1 hr.
Sequence of Human immunodeficiency virus type 1 integrase (Q7ZJM1 whole entry): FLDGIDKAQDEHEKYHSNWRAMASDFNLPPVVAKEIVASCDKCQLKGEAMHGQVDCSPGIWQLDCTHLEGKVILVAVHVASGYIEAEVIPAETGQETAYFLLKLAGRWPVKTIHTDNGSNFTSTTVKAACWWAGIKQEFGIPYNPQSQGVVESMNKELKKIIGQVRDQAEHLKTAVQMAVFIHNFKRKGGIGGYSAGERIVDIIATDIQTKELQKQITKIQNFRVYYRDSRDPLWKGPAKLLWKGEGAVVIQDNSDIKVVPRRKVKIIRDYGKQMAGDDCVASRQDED

Compound `Cc1ccc(-n2ncnc2-c2nc3ccccc3nc2NS(=O)(=O)c2cc(C(=O)Nc3ccccc3)c(Cl)cc2S)cc1` displayed an IC50 of 10 µM. Turning to `Cc1cc2nc3nc(N)nc(NS(=O)(=O)c4cc(C)c(Cl)cc4S)n3c2cc1C`, the IC50 stood at 7.41 µM. The same measure for `O=C(Oc1ccc(/C=C/S(=O)(=O)CS(=O)(=O)/C=C/c2ccc(OC(=O)c3ccccc3)c(OC(=O)c3ccccc3)c2)cc1OC(=O)c1ccccc1)c1ccccc1`: 700 µM; for `Cc1cc2c(cc1Cl)SC(C(=O)c1ccc(F)cc1)=NS2(=O)=O`: 42 µM; for `O=S(=O)(/C=C/c1ccc(O)c(O)c1O)CS(=O)(=O)/C=C/c1ccc(O)c(O)c1O`: 0.9 µM. `CC(C)c1nc(C(=O)NCc2ccc(F)cc2)c(O)c(=O)n1C` showed an IC50 of 0.14 µM. The same measure for `NNS(=O)(=O)c1cccc(OCC(=O)O)c1`: 8.7 µM. Take `COc1ccc(C(=O)C2=NS(=O)(=O)c3cc(C)c(Cl)cc3S2)cc1`: the IC50 was determined as 12 µM. Compound `Cc1cc(S(=O)(=O)Nc2nnc3c4scc(C)c4ncn23)c(S)cc1Cl` returned an IC50 of 4.26 µM. The same measure for `O=C1NC(=S)SC1NS(=O)(=O)c1ccc(/N=N/c2ncccn2)cc1` (stereo not given): 14.1 µM.
